# From patent US20230203445A1, “HYPOIMMUNOGENIC CELLS” (HEALIOS K.K., priority 2020, published 2023)
# System: iCaspase9-introduced cells
# Test: Suicide gene function: cell death induction by rapamycin (CellTiter Glo)
# Assay type: cell-based, human
# Settings: 24 hr
# Method: Next, an experiment was conducted to confirm whether the introduced suicide gene is functionable. In order to confirm the function of the suicide gene iCaspase9 introduced into universal donor iPS cells as a safety mechanism, the cell death induction by the addition of rapamycin in vitro was confirmed. In order to evaluate the cell death induction efficiency, CellTiter Glo Assay Kit (Promega) was used to luminescence measure the cell viability based on the amount of ATP, which is an index of cell viability. The above-mentioned iCaspase9-introduced cells (clone B), and iCaspase9-free unedited cells (Parental) were cultured for 24 hr under the condition of each rapamycin concentration (0 nM, 0.003 nM, 0.01 nM, 0.03 nM, 0.1 nM, 0.3 nM, 1 nM) and the viable cell rate was measured.
smiles,measurement,value
CO[C@H]1C[C@@H]2CC[C@@H](C)[C@@](O)(O2)C(=O)C(=O)N2CCCC[C@H]2C(=O)O[C@H]([C@H](C)C[C@@H]2CC[C@@H](O)[C@H](OC)C2)CC(=O)[C@H](C)/C=C(\C)[C@@H](O)[C@@H](OC)C(=O)[C@H](C)C[C@H](C)/C=C/C=C/C=C/1C [rapamycin],rapamycin concentration at which cell death was induced by iCaspase9,≥ 0.1 nM
